Assay: xn = mol fraction of the nth substance listed

CC(O)C(=O)[O-].C[N+](C)(C)CCO + O
101 kPa
Settings	viscosity [mPa·s]
293.15 K, x2 = 0.0272	5800
293.15 K, x2 = 0.5026	174.9
293.15 K, x2 = 0.7993	26.26
293.15 K, x2 = 0.8998	7.312
298.15 K, x2 = 0	559
298.15 K, x2 = 0.4038	187.4
298.15 K, x2 = 0.5858	87.96
298.15 K, x2 = 0.7993	20.92
303.15 K, x2 = 0.0992	308.5
308.15 K, x2 = 0.3008	144.2
308.15 K, x2 = 0.8998	4.497
313.15 K, x2 = 0.8998	3.897
318.15 K, x2 = 0.7993	9.616
323.15 K, x2 = 0.701	15.61
323.15 K, x2 = 0.7993	8.175
328.15 K, x2 = 0.7993	7.029
333.15 K, x2 = 0.2048	52.54
333.15 K, x2 = 0.3008	43.97
333.15 K, x2 = 0.701	11.18
348.15 K, x2 = 0.8998	1.767
353.15 K, x2 = 0.0992	30
353.15 K, x2 = 0.7993	3.729
353.15 K, x2 = 0.8998	1.614

CC(O)C(=O)[O-].C[N+](C)(C)CCO + CCCO + O
100 kPa, x1 = 0.00408, x2 = 0.5431
Settings	viscosity [mPa·s]
288.15 K	3.551
298.15 K	2.585
308.15 K	1.943

CC[n+]1ccn(C)c1.O=S(=O)([N-]S(=O)(=O)C(F)(F)F)C(F)(F)F + [I-].[Li+]
101 kPa, x1 = 1
Settings	electrical conductivity [S/m]
288.15 K	0.611
298.15 K	0.883
333.15 K	2.18

CCCCCCCCCC(=O)[O-].CCCCCCCCCCCCCC[P+](CCCCCC)(CCCCCC)CCCCCC + CCCC(=O)O + O
298 K, 100 kPa
Settings	viscosity [mPa·s]
x2 = 0, x3 = 0.8754	96
x2 = 0.02766, x3 = 0.8266	95
x2 = 0.04982, x3 = 0.8036	97
x2 = 0.3259, x3 = 0.4715	100
x2 = 0.4065, x3 = 0.3936	96
x2 = 0.4564, x3 = 0.3488	91
x2 = 0.4978, x3 = 0.3385	78

CC[n+]1ccn(C)c1.O=S(=O)([N-]S(=O)(=O)C(F)(F)F)C(F)(F)F + CO
100 kPa
Settings	viscosity [mPa·s]
298.15 K, x2 = 0.5988	6.44
308.15 K, x2 = 0.4005	9.17
308.15 K, x2 = 0.8978	1.32
313.15 K, x2 = 0.4005	8.11
313.15 K, x2 = 0.5088	6.09
313.15 K, x2 = 0.6909	3.44
318.15 K, x2 = 0.1965	11.67
323.15 K, x2 = 0.7961	1.82

c1ccccc1 + CCCC[n+]1ccn(C)c1.N#C[S-]
100 kPa, x1 = 1
Settings	viscosity [mPa·s]
298.15 K	0.605
308.15 K	0.527
318.15 K	0.466
328.15 K	0.363

CC[n+]1ccn(C)c1.F[B-](F)(F)F + CC(=O)c1ccccc1
Settings	viscosity [mPa·s]
293.15 K, 100 kPa, x2 = 0	42.7

C=CC[n+]1ccn(C)c1.O=S(=O)([N-]S(=O)(=O)C(F)(F)F)C(F)(F)F + CCCO
298.15 K, 100 kPa
Settings	viscosity [mPa·s]
x1 = 0.2	5.11
x1 = 0.5	10.41
x1 = 0.7	16.23
x1 = 0.8	20.34
x1 = 0.9	25.56

O=P([O-])(O)O.[Na+] + CCCCCCCCCCCC[N+](C)(C)C.[Br-] + O
298.15 K, 101 kPa
Settings	electrical conductivity [S/m]
x2 = 0, x1 = 0.0001802	0.1015
x2 = 0, x1 = 0.001799	0.7566
x2 = 3.79e-06, x1 = 0.0001802	0.1031
x2 = 5.64e-06, x1 = 0.001799	0.7559
x2 = 7.76e-06, x1 = 0.0001802	0.1049
x2 = 1.11e-05, x1 = 0.001799	0.7567
x2 = 1.317e-05, x1 = 0.0001802	0.1075
x2 = 1.858e-05, x1 = 0.0001802	0.1101
x2 = 1.893e-05, x1 = 0.001799	0.7581
x2 = 2.345e-05, x1 = 0.0001802	0.1124
x2 = 2.603e-05, x1 = 0.001799	0.7597
x2 = 3.427e-05, x1 = 0.0001802	0.1175
x2 = 3.55e-05, x1 = 0.001799	0.7617
x2 = 4.401e-05, x1 = 0.0001802	0.1222
x2 = 4.714e-05, x1 = 0.001799	0.7635
x2 = 5.411e-05, x1 = 0.0001802	0.127
x2 = 5.843e-05, x1 = 0.001799	0.766
x2 = 6.457e-05, x1 = 0.0001802	0.132
x2 = 6.953e-05, x1 = 0.001799	0.7685
x2 = 7.467e-05, x1 = 0.0001801	0.1368
x2 = 8.082e-05, x1 = 0.001799	0.771
x2 = 8.477e-05, x1 = 0.0001801	0.1416
x2 = 9.228e-05, x1 = 0.001799	0.7738
x2 = 9.541e-05, x1 = 0.0001801	0.1467
x2 = 0.0001034, x1 = 0.001799	0.777
x2 = 0.0001055, x1 = 0.0001801	0.1516
x2 = 0.0001145, x1 = 0.001799	0.7803
x2 = 0.0001154, x1 = 0.0001801	0.1563
x2 = 0.0001255, x1 = 0.0001801	0.161
x2 = 0.0001258, x1 = 0.001799	0.7836
x2 = 0.0001363, x1 = 0.001799	0.7867
x2 = 0.0001371, x1 = 0.0001801	0.1667
x2 = 0.0001469, x1 = 0.001798	0.7899
x2 = 0.0001488, x1 = 0.0001801	0.1723
x2 = 0.0001578, x1 = 0.001798	0.793
x2 = 0.0001602, x1 = 0.0001801	0.1777
x2 = 0.0001687, x1 = 0.001798	0.7962
x2 = 0.0001715, x1 = 0.0001801	0.1831
x2 = 0.0001796, x1 = 0.001798	0.7996
x2 = 0.0001829, x1 = 0.0001801	0.1884
x2 = 0.0001905, x1 = 0.001798	0.8028
x2 = 0.0001941, x1 = 0.0001801	0.1937
x2 = 0.0002011, x1 = 0.001798	0.8057
x2 = 0.0002054, x1 = 0.0001801	0.1991
x2 = 0.0002117, x1 = 0.001798	0.8081
x2 = 0.0002166, x1 = 0.0001801	0.2043
x2 = 0.0002224, x1 = 0.001798	0.8103
x2 = 0.0002276, x1 = 0.0001801	0.2096
x2 = 0.0002326, x1 = 0.001798	0.8125
x2 = 0.0002384, x1 = 0.0001801	0.2146
x2 = 0.0002431, x1 = 0.001798	0.8147
x2 = 0.0002492, x1 = 0.0001801	0.2196
x2 = 0.0002537, x1 = 0.001798	0.8169
x2 = 0.0002601, x1 = 0.0001801	0.2239
x2 = 0.0002641, x1 = 0.001798	0.8191
x2 = 0.0002692, x1 = 0.0001801	0.2266
x2 = 0.0002744, x1 = 0.001798	0.8212
x2 = 0.0002795, x1 = 0.0001801	0.2291
x2 = 0.0002848, x1 = 0.001798	0.8234
x2 = 0.0002918, x1 = 0.0001801	0.2316
x2 = 0.0003062, x1 = 0.0001801	0.234
x2 = 0.0003222, x1 = 0.0001801	0.2367
x2 = 0.0003394, x1 = 0.0001801	0.2394
x2 = 0.000366, x1 = 0.0001801	0.2432
x2 = 0.0003922, x1 = 0.0001801	0.2467

— the CheMixHub ionic liquid set
